# Measured values taken from a melting point compilation (Tetko et al.; mined from patent text by program, amines drawn as free bases though some values may be those of a salt).
row,Structure (SMILES),melting point [°C]
1,Nc1c(F)c(N2CCC(n3cncn3)C2)c(F)c2c1c(=O)c(C(=O)O)cn2C1CC1 (centres undefined),240
2,N#CCNC(=O)C1(NC(=O)c2ccc(C3CCN(C4CCCC4)CC3)cc2)CCCCC1,233 to 234
3,CC(=O)Nc1ccc(C#Cc2ccc(N3CC4CCC(C3)N4C)nn2)cc1,292
4,Cc1cccc(-c2n[nH]cc2-c2ccc(F)c(-c3cn4c(n3)S(=O)CC4)c2)n1 (centres undefined),140 to 144
5,CC1=Nc2c3c(C)cnc-3ccn2C1,211
6,COc1cc(NC(=O)CC#N)cc(OC)c1OC,146 to 147
7,CC(C)(C)OC(=O)NC(Cc1c[nH]c2ccccc12)C(=O)CCc1cc(C(F)(F)F)cc(C(F)(F)F)c1 (centres undefined),138 to 140
8,Cc1c(Nc2c(C#N)cnc3sc(CCC(=O)N4CCCC4)cc23)ccc2[nH]ccc12,175
9,Cc1cccc2c(=O)c(CCCl)n[nH]c12,222 to 225
10,Cc1cc(C)n(-c2cc(F)c(C#N)cc2F)n1,122
11,Cc1csc2ccc3[nH]c4c(c3c12)CN(CCCN(C)C)CC4,184
12,O=C(O)c1[nH]c2ccc(C(O)(C(F)(F)F)C(F)(F)F)cc2c1-c1ccccc1,186 to 190
13,Cc1ccc(OC2CCN(C(=O)C(=O)Nc3ccc4c(c3)CC(=O)N4)CC2)cc1,109 to 112
14,COc1ccc(C(C)(C)C)cc1S(N)(=O)=O,156 to 158
15,O=C1NC(=O)c2ccccc2C1=CNc1ccc(-c2ccccc2)cc1,261 to 262
16,Cc1cc2c(cc1Br)C(O)(c1ccccn1)CC(C)(C)CO2 (centres undefined),147
17,CC(C1CCC(Oc2ccc(F)cc2)C1)N(O)C(N)=O (centres undefined),111 to 112
18,CCC(Cc1ccc(OCCN2CCOCC2)cc1)(C(=O)NO)S(=O)(=O)c1ccc(OC)cc1 (centres undefined),51
19,CC(=Cc1ccc(C(=O)O)cc1)c1cc2c(cc1C)C(C)(C)CCC2(C)C,91 to 92
20,CC1C(=NO)CC2(O)C3Cc4ccc(O)c5c4C2(CCN3C)C1O5 (centres undefined),115 to 116
21,COC(=O)c1cc(C#Cc2cnc3nc(NC(=O)C(C)(C)C)nc(O)c3c2)cn1[Si](C(C)C)(C(C)C)C(C)C,163 to 165
22,FC(F)(F)c1cc(Cl)c(-n2cc(C3CC3(Cl)Cl)nn2)c(Cl)c1 (centres undefined),134 to 136

row,Structure (SMILES),melting point [°C]
1,Cc1ccc(S(=O)(=O)N2CCCC2c2ccc(Cl)cc2)cc1 (racemic),121
2,CSc1nc(Cl)c2ccsc2n1,105 to 107
3,N#Cc1ccc2c(c1)CCC(c1ccccc1F)=C2CCO,119
4,CC(C)CCCC(C)C1CCC2C3CC4(OCCO4)C4CC(O)CCC4(C)C3CCC12C (centres undefined),114 to 115
5,Cc1cnc2c(NC(=O)c3c(Cl)cccc3Cl)cccc2c1-n1ccc(=O)cc1,280 to 282
6,Cc1cc2c(cc1O)C(C)(C)CC1(CC(C)(C)c3cc(OCCCC(=O)O)c(C)cc3O1)O2 (centres undefined),173 to 174
7,CC(=O)Nc1ccc(S(=O)(=O)O)c(NCC(=O)O)c1,234 to 235
8,NC(=O)c1ccc(-c2cccc3cc(Cc4cccc(C(F)(F)F)c4)sc23)cn1,144 to 145
9,Oc1cc(C(F)(F)F)ccc1I,36 to 38
10,CCCCCCCCCCCCCCCCOc1ccc(OCC(=O)O)cc1,125 to 127
11,COC(=O)C1=C(C)NC(C)=C(C(=O)OC/C=C/c2ccc(O)cc2)C1c1cccc([N+](=O)[O-])c1 (centres undefined),138 to 139
12,O=C1OC(=O)c2c3cc(Cl)ccc3cc3cccc1c23,325 to 327
13,CCN(CC)Cc1cc(NC(=O)Nc2ccc(Oc3cc(N)ncn3)cc2)cc(C(F)(F)F)c1,63 to 65
14,Cc1cc2cc(OCC(=O)O)c(Cl)c(Cl)c2s1,215 to 216
15,CC1(C)[C@H](C(=O)OCc2csc(Oc3ccccc3)n2)[C@@H]1C=C1CCSC1=O,78
16,CS(=O)(=O)c1ccc(-c2nn3cc(C(F)(F)F)oc3c2-c2ccc(F)cc2)cc1,186 to 189
17,CCS(=O)(=O)c1ccc(N)cc1S(=O)(=O)NC(C)(C)C,193 to 195
18,Cc1ccc2oc(=O)c(NC(=O)Nc3ccc(F)cc3F)c(-c3ccccc3Cl)c2c1,214 to 215
19,CC(C)CCOCC(O)C(CC(C)C)NC(=O)C(Cc1c[nH]cn1)NC(=O)C(CC(=O)NCCc1ccccc1)Cc1cccc2ccccc12 (mixture of isomers),73 to 76
20,COc1cccc(-c2ccc3ccc(OC)cc3c2)c1,58 to 59
21,CSc1ncc(C(O)c2ccc(C)nc2)c(O)n1 (centres undefined),140
22,Cc1ccc(-c2nc(Sc3ccc(Cl)cc3)cc(N3CCN(C)CC3)n2)cc1,104 to 105

row,Structure (SMILES),melting point [°C]
1,COC1=C(c2cccc(C(F)(F)F)c2)C(=O)OC1,126
2,CC(C)CCN1C(=O)C(NC(=O)Oc2cccc(Br)c2)C(=O)N(c2ccccc2)c2ccc(Cl)cc21 (centres undefined),144 to 145
3,CN1C(=O)C(c2ccc(OC(F)F)cc2)(c2cccc(C(F)CCCF)c2)N=C1N (centres undefined),54 to 57
4,CN1CCN(C)c2nc(c3ccccc3n2)NCC2CCCC(CNc3nc1nc1ccccc31)C2,284 to 285
5,COc1ccc(C(=O)Nc2c(Cl)cncc2Cl)cc1OC1COCC1O (centres undefined),183 to 185
6,OCC1OC(n2cnc3c(NN4CCOCC4)nc(Cl)nc32)C(O)C1O (centres undefined),160 to 161
7,CCOC(=O)c1ccc(CCN(C)CCCC(C#N)(C(=O)OCC)c2ccc(OC)c(OC)c2)cc1 (centres undefined),83 to 84
8,CC(C=CC=C(C)c1cc(C(C)(C)C)cc(C(C)(C)C)c1)=CC(=O)O,196 to 198
9,CCCCCC(=O)NN,72.5 to 73.9
10,COc1nc(C)c(C)nc1NC(=O)N1CCN(c2cccc(Br)c2)CC1,158 to 160
11,COC(=O)c1cnc(C(=O)OC)c([N+](=O)[O-])c1,82 to 86
12,O=[N+]([O-])C=C1SCCN1Cc1cccnc1,96 to 100
13,Cc1ccc(N2CSC(=NCc3ccc(C(F)(F)C(F)(F)F)cc3)N(CC(F)(F)F)C2=O)cc1,103 to 104
14,CCCNC(=O)C1(CCCCN2CCC(N3Cc4ccccc4C3=O)CC2)c2ccccc2-c2cccnc21 (centres undefined),52 to 54
15,Cc1oc(-c2ccco2)nc1COc1ccc(COc2nn(Cc3ccccc3)cc2C=O)cc1-c1ccccc1,122 to 123
16,CCC(CC)Nc1c(NCc2ccc(Cl)cc2Cl)c(=O)c1=O,210 to 211
17,Brc1ccc2c(c1)-c1nc(-c3ccccc3)sc1CC2,85
18,CC1(C)SC(=O)NC1C(=O)NCCO[N+](=O)[O-] (centres undefined),98 to 100
19,C#CCC(CC#C)(C(=O)NO)S(=O)(=O)c1ccc(OC)cc1,156
20,Cc1c(NC(=O)c2ccc(-c3ccc(Cl)cc3)nc2)ccc2cc(CN3CCCC3)cnc12,234 to 236
21,NS(=O)(=O)c1c(Cl)ccc(NC(=O)Nc2cccc(Cl)c2Cl)c1O,241 to 242
22,Nc1cc(NC(=O)CCCCl)c(Cl)cc1Cl,125 to 128

# More lines, now with the values ahead:
row,melting point [°C],Structure (SMILES)
1,207 to 209,CN1CCN(c2ccccc2C=CC(=O)Nc2ccc(C(F)(F)F)cc2)CC1
2,141,CCc1nn(C(=O)Oc2ccccc2)c(=O)n1C
3,173 to 174,CC(=O)Oc1c(Oc2ccccc2)c(Oc2ccccc2)c(OC(C)=O)c2ccccc12
4,206,CC(=O)N(CC(=O)O)c1ccccc1C(=O)O
5,185 to 187,CC(=O)Oc1ccc(C(=O)O)cc1-c1ccccc1
6,306 to 308,Cc1nc2c(N)nc3ccccc3c2n1CC1(O)CCCC1
7,205 to 207,CN1CCN(c2cccc3ccc(Nc4ncccc4NC(=O)c4ccccc4)cc23)CC1
8,140 to 143,CC(SC(=O)c1ccccc1)C(=O)N(CC(=O)O)C1CC1 (centres undefined)
9,89 to 90,Brc1nc(Br)n(COCc2ccccc2)c1Sc1ccccc1
10,176 to 178,O=C(O)c1ccc(C(=O)NC/C=C/c2ccccc2)cc1
11,78 to 81,CN(C)c1cc2ccc(OCc3ccccc3)cc2s1
12,148 to 151,CCCc1nc(C(C)(C)O)c(C(=O)OCC)n1Cc1ccc(-c2ccccc2C(N)=O)cc1
13,128 to 131,CCOC(=O)Cc1sc(Sc2cc(C(=O)OC)c3ccccc3n2)nc1C
14,131 to 133,O=[N+]([O-])c1ccc(OS(=O)(=O)c2ccccc2I)cc1
15,162 to 163,CCOC(=O)COc1ccc(C(=O)Nc2ccccc2Oc2ccccc2-c2nnn[nH]2)cc1
16,123 to 127,COc1ccc2c(c1)C(=O)N(c1ccc3c(c1)CCCN3C)C2
17,142 to 143,CC(=O)c1ccc(Oc2ccc(F)cc2F)c(NS(C)(=O)=O)c1

row,melting point [°C],Structure (SMILES)
1,296 to 300,CCCc1nc(C)n2c(=O)n(CC(=O)O)nc2c1Cc1ccc(NC(=O)c2ccccc2S(=O)(=O)O)cc1
2,62 to 66,O=C(C(=O)c1ccc(F)cc1Br)c1ccccc1
3,242 to 243,CCOC(=O)c1cnn(C)c1C(=O)Nc1ccn2nc(-c3ccccc3)nc2c1
4,285 to 287,CN1CCc2[nH]c(=O)n3nc(-c4ccccc4F)nc3c2C1
5,107,CSCC(=O)c1ccc(O)c(O)c1
6,120 to 121,O=C(O)CCc1ccc(SCc2coc(/C=C/c3ccccc3)n2)cc1
7,99 to 101,CN1C(=O)C2(CCCC2(C)C)c2ccccc21 (centres undefined)
8,154 to 155,N#CC(C#N)(COc1ccccc1Cl)NC(=O)c1ccc(OC(F)(F)F)cc1
9,161 to 163,O=C(COc1cccc(-n2nc(-c3ccc(F)cc3)c3cccnc32)c1)NCCO
10,192,CCOC(=O)COc1ccc(/C=C/c2nc3c(c(=O)n(CC)c(=O)n3CC)n2C)cc1
11,155 to 156,CC(C)C(=O)c1ccc2oc3ncccc3c(=O)c2c1
12,98 to 100,CC(=O)c1ccc2ccc3c(c2c1)C(CCl)CN3C(=O)OC(C)(C)C (centres undefined)
13,124,Cn1cc(-c2cccc(F)c2)c(C(=O)NCCNC(=O)OC(C)(C)C)n1
14,271 to 273,O=C(O)c1cn(-c2ccncc2F)c2cc(F)c(F)cc2c1=O
15,150 to 152,COc1ccc2c(c1)C(=O)C(n1ccnc1)CO2 (centres undefined)
16,90 to 92,C=C(Cn1ccnc1)c1ccccc1OCc1ccc(-c2ccccc2)cc1
